Source: patent US20110177943A1, “Benzyl-Substituted Thiadiazolyloxyphenylamidinium Salts” (priority 2009, published 2011)
Structures can show the parent of a compound that is named as a salt. Where two headings read alike, the source gives them in different places. Marks after values point to notes of the source that are not given here.

Key:
[1] = logP by HPLC on reversed-phase columns (EEC directive 79/831 Annex V.A8); format: physicochemical; details: for chromatographic logP: [b] LC-MS determination in the acidic range at pH 2.7, 0.1% aqueous formic acid and acetonitrile, read-out: log p
Method: Calibration was carried out using unbranched alkan-2-ones (having from 3 to 16 carbon atoms) with known logP values (the logP values were determined by the retention times using linear interpolation between two successive alkanones).

Fusarium proliferatum = assay: Production of Fumonisin FB1 by Fusarium proliferatum; format: cell-based; details: 120 h, read-out: inhibition of fumonisin FB1 production
Method: Production of Fumonisin FB1 by Fusarium proliferatum
The compounds were tested in microtitre plates at 5 concentrations of from 0.08 μM to 50 μM in a fumonisin-inducing liquid medium (0.5 g of malt extract, 1 g of yeast extract, 1 g of bactopeptone, 20 g of fructose, 1 g of KH2PO4, 0.3 g of MgSO47 H2O, 0.3 g of KCl, 0.05 g of ZnSO47 H2O and 0.01 g of CuSO4×5 H2O per litre) with DMSO (0.5%). Inoculation was carried out using a concentrated spore suspension of Fusarium proliferatum at a final concentration of 2000 spores/ml.
The plate was incubated at 20° C. and high atmospheric humidity for 5 days.
At the beginning and after 5 days, the OD was measured at OD620 (repeated measurements: 3×3 measurements per well) to calculate the inhibition of growth.
After 5 days, a sample of the liquid medium was removed and diluted 1:1000 with 50% strength acetonitrile. The concentration of FB1 of the diluted samples was analysed by HPLC-MS/MS, and the measured values were used to calculate the inhibition of fumonisin FB1 production compared to an active compound-free control. […]

Phakopsora pachyrhizi = assay: Phakopsora Test (soya beans)/Protective; format: in vivo; details: protective, active compound concentration 100 ppm, evaluation 11 days after inoculation
Method: Phakopsora Test (soya beans)/Protective
One day after spraying, the plants are inoculated with an aqueous spore suspension of the soya bean rust pathogen (Phakopsora pachyrhizi). The plants are placed in a greenhouse at 20° C. and a rel. atmospheric humidity of 80%.
Evaluation is carried out 11 days after the inoculation.

Sphaerotheca fuliginea = details: cucumber, protective, active compound concentration 500 ppm, evaluation 7 days after inoculation
Method: Sphaerotheca Test (cucumber)/protective
1 day after the treatment, the plants are inoculated with a spore suspension of Sphaerotheca fuliginea. The plants are then placed in a greenhouse at a relative atmospheric humidity of 70% and a temperature of 23° C.
Evaluation is carried out 7 days after the inoculation.

Compound: CCN(C)C=Nc1cc(C)c(Oc2nc(Cc3ccc(Cl)cc3)ns2)cc1C.O=S(=O)(O)O [Example 1, N′-(4-{[3-(4-chlorobenzyl)-1,2,4-thiadiazol-5-yl]oxy}-2,5-dimethylphenyl)-N-ethyl-N-methylimidoformamidesulphate]
- log p ([1]; pH 2.7): 1.88^[b]

Compound: Br.CCN(C)C=Nc1cc(C)c(Oc2nc(Cc3ccc(Cl)cc3)ns2)cc1C [Example 2, N′-(4-{[3-(4-chlorobenzyl)-1,2,4-thiadiazol-5-yl]oxy}-2,5-dimethylphenyl)-N-ethyl-N-methylimidoformamide hydrobromide]
- inhibition at 50 µM (Fusarium proliferatum): > 80%
- chromatographic logP ([1]; reversed-phase HPLC column): 1.83
- efficacy (Phakopsora pachyrhizi): ≥ 80%

Compound: CCN(C)C=Nc1cc(C)c(Oc2nc(Cc3ccc(Cl)cc3)ns2)cc1C [Example 3, N′-(4-{[3-(4-Chlorobenzyl)-1,2,4-thiadiazol-5-yl]oxy}-2,5-dimethylphenyl)-N-ethyl-N-methylimidoformamide hydrochloride (1:1)]
- chromatographic logP [1]: 2.03

Compound: N′-(4-{[3-(4-chlorobenzyl)-1,2,4-thiadiazol-5-yl]oxy}-2,5-dimethylphenyl)-N-ethyl-N-methylimido-formamide-1,2-benzothiazol-3(2H)-one 1,1-dioxide [Example 4]
- efficacy (Sphaerotheca fuliginea): ≥ 70%
